Structures can show the parent of a compound that is named as a salt.
Target: T1, ΔF508-CFTR (Homo sapiens, UniProt P13569, DEL508-508)
T1 construct: expressed in transfected cells
Assay: Membrane potential optical assay for potentiators of ΔF508-CFTR (FLIPR III, voltage sensing dyes)
Type: cell-based
Conditions: for Emax: NIH3T3, 100% efficacy is the maximum response obtained with 4-methyl-2-(5-phenyl-1H-pyrazol-3-yl)phenol, ΔF508 CFTR NIH 3T3 cells; for EC50: temperature-corrected ΔF508 CFTR NIH 3T3 cells, forskolin activation
Text: The assay utilizes fluorescent voltage sensing dyes to measure changes in membrane potential using a fluorescent plate reader (e.g., FLIPR III, Molecular Devices, Inc.) as a readout for increase in functional ΔF508-CFTR in NIH 3T3 cells.
To identify potentiators of ΔF508-CFTR, a double-addition HTS assay format was developed. This HTS assay utilizes fluorescent voltage sensing dyes to measure changes in membrane potential on the FLIPR III as a measurement for increase in gating (conductance) of ΔF508 CFTR in temperature-corrected ΔF508 CFTR NIH 3T3 cells.
Solutions • Bath Solution #1: (in mM) NaCl 160, KCl 4.5, CaCl2 2, MgCl2 1, HEPES 10, pH 7.4 with NaOH. • Chloride-Free Bath Solution: Chloride Salts in Bath Solution #1 are Substituted with Gluconate Salts.
NIH3T3 mouse fibroblasts stably expressing ΔF508-CFTR are used for optical measurements of membrane potential. The cells are maintained at 37° C. in 5% CO2 and 90% humidity in Dulbecco's modified Eagle's medium supplemented with 2 mM glutamine, 10% fetal bovine serum, 1×NEAA, β-ME, 1×pen/strep, and 25 mM HEPES in 175 cm^2 culture flasks. For all optical assays, the cells were seeded at ˜20,000/well in 384-well matrigel-coated plates and cultured for 2 hrs at 37° C. before culturing at 27° C. for 24 hrs. for the potentiator assay. For the correction assays, the cells are cultured at 27° C. or 37° C. with and without compounds for 16-24 hours. Electrophysiological Assays for assaying ΔF508-CFTR modulation properties of compounds.

T1 sequence (P13569 with tags, fused parts or gaps DEL508-508): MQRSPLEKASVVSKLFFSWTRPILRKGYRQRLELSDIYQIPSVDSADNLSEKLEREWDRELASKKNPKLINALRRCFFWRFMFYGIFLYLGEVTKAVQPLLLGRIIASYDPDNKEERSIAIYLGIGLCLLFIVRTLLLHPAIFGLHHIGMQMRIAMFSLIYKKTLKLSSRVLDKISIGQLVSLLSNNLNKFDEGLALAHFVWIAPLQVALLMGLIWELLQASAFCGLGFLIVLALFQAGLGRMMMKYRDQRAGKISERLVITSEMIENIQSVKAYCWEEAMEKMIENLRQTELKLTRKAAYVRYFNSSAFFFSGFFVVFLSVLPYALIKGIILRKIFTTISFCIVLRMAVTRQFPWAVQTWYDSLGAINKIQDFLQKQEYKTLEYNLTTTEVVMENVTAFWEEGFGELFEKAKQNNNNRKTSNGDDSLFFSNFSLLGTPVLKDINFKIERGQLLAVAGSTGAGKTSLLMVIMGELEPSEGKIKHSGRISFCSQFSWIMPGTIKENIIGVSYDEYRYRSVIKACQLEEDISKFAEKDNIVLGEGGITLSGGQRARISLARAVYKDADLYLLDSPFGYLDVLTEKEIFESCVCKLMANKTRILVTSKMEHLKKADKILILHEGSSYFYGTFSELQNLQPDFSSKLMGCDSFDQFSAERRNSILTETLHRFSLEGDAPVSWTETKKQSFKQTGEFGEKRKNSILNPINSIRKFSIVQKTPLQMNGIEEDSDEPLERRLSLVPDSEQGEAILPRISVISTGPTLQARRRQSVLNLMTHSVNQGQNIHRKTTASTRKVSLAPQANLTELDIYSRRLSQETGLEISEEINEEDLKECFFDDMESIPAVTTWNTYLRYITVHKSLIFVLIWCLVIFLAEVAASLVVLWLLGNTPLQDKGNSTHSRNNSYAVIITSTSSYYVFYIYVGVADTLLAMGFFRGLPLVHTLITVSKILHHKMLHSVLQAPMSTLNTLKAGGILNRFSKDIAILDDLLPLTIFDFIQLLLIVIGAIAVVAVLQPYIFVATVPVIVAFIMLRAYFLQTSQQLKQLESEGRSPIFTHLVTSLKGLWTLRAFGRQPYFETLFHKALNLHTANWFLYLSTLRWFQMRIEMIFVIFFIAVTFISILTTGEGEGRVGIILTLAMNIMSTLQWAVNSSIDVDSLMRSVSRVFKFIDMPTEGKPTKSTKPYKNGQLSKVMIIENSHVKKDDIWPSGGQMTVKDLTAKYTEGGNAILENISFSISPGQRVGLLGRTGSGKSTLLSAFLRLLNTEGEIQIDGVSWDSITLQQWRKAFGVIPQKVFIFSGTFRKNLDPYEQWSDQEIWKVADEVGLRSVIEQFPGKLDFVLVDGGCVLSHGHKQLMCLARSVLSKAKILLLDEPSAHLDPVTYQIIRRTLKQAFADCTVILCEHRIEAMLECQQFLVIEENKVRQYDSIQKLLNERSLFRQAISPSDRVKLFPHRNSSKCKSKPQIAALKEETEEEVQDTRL

Row | Emax | EC50 | Compound
1 | 25 to 100% | 5 to 20 µM | CC(C)Oc1c(O)cccc1NC(=O)C1CNc2ccc(F)cc2O1 (centres unmarked) [Compound 112]
2 | < 25% | 5 to 20 µM | N#Cc1ccc2c(c1)NCC(C(=O)Nc1cc(O)c(C3CCCC3)cc1C1CCNCC1)O2 (centres unmarked) [Compound 113]
3 | 25 to 100% | 5 to 20 µM | CN(C)CC#Cc1cc(F)ccc1NC(=O)C1CNc2cc(C#N)ccc2O1 (centres unmarked) [Compound 114]
4 | 25 to 100% | < 5 µM | CN(C(=O)C1CNc2ccccc2O1)c1ccc(C(C)(C)C)c(O)c1 (centres unmarked) [Compound 115, N-(4-tert-butyl-3-hydroxyphenyl)-N-methyl-3,4-dihydro-2H-benzo[b][1,4]oxazine-2-carboxamide hydrochloride]
5 | 25 to 100% | < 5 µM | Cc1ccc(NC(=O)C2CNc3cc(OC(F)(F)F)ccc3O2)c(CCN2CCOCC2)c1 (centres unmarked) [Compound 116]
6 | > 100% | < 5 µM | CC1CCN(Cc2cc(C3CCCC3)c(O)cc2NC(=O)C2CNc3cc(OC(F)(F)F)ccc3O2)CC1 (centres unmarked) [Compound 117]
7 | > 100% | < 5 µM | CCc1cc(CN2CCC(C)CC2)c(NC(=O)C2CNc3cc(OC(F)(F)F)ccc3O2)cc1O (centres unmarked) [Compound 118]
8 | 25 to 100% | 5 to 20 µM | Cc1ccc(NC(=O)C2CNc3cc(OC(F)(F)F)ccc3O2)c(CCN2CC[C@@H](F)C2)c1 (some centres unmarked) [Compound 119]
9 | 25 to 100% | < 5 µM | CC(C)(C)c1ccc(NC(=O)C2CNc3ccccc3S2)cc1O (centres unmarked) [Compound 120, N-(4-tert-butyl-3-hydroxy-phenyl)-3,4-dihydro-2H-1,4-benzothiazine-2-carboxamide]
10 | 25 to 100% | < 5 µM | CC(C)(C)c1ccc(NC(=O)C2CNc3ccccc3S2(=O)=O)cc1O (centres unmarked) [Compound 121, N-(4-tert-butyl-3-hydroxy-phenyl)-1,1-dioxo-3,4-dihydro-2H-benzo[b][1,4]thiazine-2-carboxamide]
11 | 25 to 100% | < 5 µM | CN(C)CC#Cc1cc(C2CCCC2)c(O)cc1NC(=O)C1CNc2cc(F)ccc2O1 (centres unmarked) [Compound 123]
12 | 25 to 100% | < 5 µM | Cc1cc2c(cc1F)NCC(C(=O)Nc1cc(O)c(C3CCCC3)cc1C#CCN(C)C)O2 (centres unmarked) [Compound 124]
13 | < 25% | < 5 µM | CC(C)(C)c1ccc(NC(=O)C2CNc3ccccc3[S+]2[O-])cc1O (centres unmarked) [Compound 125, N-(4-tert-butyl-3-hydroxy-phenyl)-1-oxo-3,4-dihydro-2H-benzo[b][1,4]thiazine-2-carboxamide]
14 | > 100% | < 5 µM | Cc1cc(CN2CCC(C)CC2)c(NC(=O)C2CNc3cc(OC(F)(F)F)ccc3O2)cc1O (centres unmarked) [Compound 126]
15 | 25 to 100% | < 5 µM | Cc1cc(C#CCN(C)C)c(NC(=O)C2CNc3cc(OC(F)(F)F)ccc3O2)cc1C (centres unmarked) [Compound 127]
16 | 25 to 100% | < 5 µM | CC1(C(=O)Nc2cc(O)c(C3CCCC3)cc2C(F)(F)F)CNc2cc(OC(F)(F)F)ccc2O1 (centres unmarked) [Compound 128]
17 | 25 to 100% | < 5 µM | Cc1ccc(NC(=O)C2CNc3cc(OC(F)(F)F)ccc3O2)c(-c2nc(CN(C)C)no2)c1 (centres unmarked) [Compound 129]

Continued, compound first:

Row | Compound | Emax | EC50
18 | Cc1ccc(NC(=O)C2CNc3cc(OC(F)(F)F)ccc3O2)c(C#CCN2CCC(N)CC2)c1 (centres unmarked) [Compound 101] | < 25% | 5 to 20 µM
19 | CC[N+](CC)(CC)CC#Cc1cc(C)ccc1NC(=O)C1CNc2cc(OC(F)(F)F)ccc2O1 (centres unmarked) [Compound 102] | 25 to 100% | 5 to 20 µM
20 | O=C(Nc1cc(O)c(C2CCCC2)cc1Cl)C1CNc2ccc(F)cc2O1 (centres unmarked) [Compound 103] | 25 to 100% | < 5 µM
21 | CN(C)CC#Cc1cc(N2C3CCC2CC3)ccc1NC(=O)C1CNc2ccccc2O1 (centres unmarked) [Compound 104] | 25 to 100% | 5 to 20 µM
22 | CS(=O)(=O)c1cc(C2CCCC2)c(O)cc1NC(=O)C1CNc2cc(OC(F)(F)F)ccc2O1 (centres unmarked) [Compound 105] | > 100% | 5 to 20 µM
23 | CN(C)CC#Cc1cc(C2CCCC2)c(O)cc1NC(=O)C1CNc2cc(OC(F)(F)F)ccc2O1 (centres unmarked) [Compound 106] | > 100% | < 5 µM
24 | Cc1cccc2c1OC(C(=O)Nc1ccc(C(C)(C)C)c(O)c1)CN2 (centres unmarked) [Compound 107] | 25 to 100% | < 5 µM
25 | CC1(c2cc(F)c(NC(=O)C3CNc4cc(OC(F)(F)F)ccc4O3)cc2O)CCCCC1 (centres unmarked) [Compound 108] | 25 to 100% | < 5 µM
26 | O=C(Nc1ccc(O)c(OC(F)(F)F)c1)C1CNc2ccc(F)cc2O1 (centres unmarked) [Compound 109] | 25 to 100% | 5 to 20 µM
27 | CN(C)CC#Cc1cc(C2CCCC2)ccc1NC(=O)C1CNc2cc(C#N)ccc2O1 (centres unmarked) [Compound 110] | 25 to 100% | < 5 µM
28 | CN1CCC(c2cc(C3CCCC3)c(O)cc2NC(=O)C2CNc3cc(C#N)ccc3O2)CC1 (centres unmarked) [Compound 111, 6-cyano-N-(4-cyclopentyl-5-hydroxy-2-(1-methylpiperidin-4-yl)phenyl)-3,4-dihydro-2H-benzo[b][1,4]oxazine-2-carboxamide] | < 25% | 5 to 20 µM

Reference: US8999976B2, “Modulators of cystic fibrosis transmembrane conductance regulator” (Vertex Pharmaceuticals Incorporated, priority 2008, dated 2015)
